These results are taken from ChEMBL document CHEMBL4402607, “Molecular Basis for Omapatrilat and Sampatrilat Binding to Neprilysin-Implications for Dual Inhibitor Design with Angiotensin-Converting Enzyme” (J Med Chem, 2020).

Where only a bound is given, the exact number is not on record here.

Assay [1] concerns the target T1, Angiotensin-converting enzyme (Homo sapiens, UniProt P12821). Briefly: Inhibition of human somatic ACE N-domain soluble form (1 to 629 residues) expressed in CHO cells using Z-FHL as substrate preincubated with enzyme followed by substrate addition by fluorescence based assay.
Assay [2] has as its target T1, Angiotensin-converting enzyme. Briefly: Inhibition of human testis ACE C-domain lacking unique O-glycosylated region, transmembrane anchor and cytoplasmic tail expressed in CHO cells using Z-FHL as substrate by fluorescence based assay.
For assay [3] the target is unchanged. Briefly: Inhibition of human ACE using MCA-RPPGFSAFK-Dnp-OH as substrate by fluorescence based analysis.
The target of assay [4] is Neprilysin (Homo sapiens, UniProt P08473). Briefly: Inhibition of NEP (unknown origin).
Chain of Neprilysin (Homo sapiens, UniProt P08473) (P08473 whole entry): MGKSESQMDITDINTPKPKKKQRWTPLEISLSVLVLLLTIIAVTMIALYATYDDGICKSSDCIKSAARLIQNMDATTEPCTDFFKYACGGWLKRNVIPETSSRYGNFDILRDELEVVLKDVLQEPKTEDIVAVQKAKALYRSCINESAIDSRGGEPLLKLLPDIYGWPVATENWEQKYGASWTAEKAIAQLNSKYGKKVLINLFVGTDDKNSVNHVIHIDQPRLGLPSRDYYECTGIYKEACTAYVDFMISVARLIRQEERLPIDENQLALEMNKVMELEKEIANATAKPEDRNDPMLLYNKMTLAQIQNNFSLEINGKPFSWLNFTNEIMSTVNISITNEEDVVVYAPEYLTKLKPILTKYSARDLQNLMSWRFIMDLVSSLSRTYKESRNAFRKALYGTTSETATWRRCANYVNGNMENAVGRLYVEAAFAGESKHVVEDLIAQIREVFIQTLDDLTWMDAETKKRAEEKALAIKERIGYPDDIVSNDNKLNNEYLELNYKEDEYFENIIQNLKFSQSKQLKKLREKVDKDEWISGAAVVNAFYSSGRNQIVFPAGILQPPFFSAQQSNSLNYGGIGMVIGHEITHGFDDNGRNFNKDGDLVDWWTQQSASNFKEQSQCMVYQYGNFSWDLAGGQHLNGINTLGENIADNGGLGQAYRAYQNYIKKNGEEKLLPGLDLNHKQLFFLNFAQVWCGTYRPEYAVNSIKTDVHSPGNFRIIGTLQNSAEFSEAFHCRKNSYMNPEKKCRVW
Assay [5] in a line: Inhibition of rabbit lung ACE using hippuryl-His-Leu as substrate preincubated with enzyme for 15 mins followed by substrate addition. Further details: species or system Oryctolagus cuniculus.
Assay [6] deals with T2, Neprilysin (Rattus norvegicus, UniProt P07861).
T2 sequence (P07861 whole entry): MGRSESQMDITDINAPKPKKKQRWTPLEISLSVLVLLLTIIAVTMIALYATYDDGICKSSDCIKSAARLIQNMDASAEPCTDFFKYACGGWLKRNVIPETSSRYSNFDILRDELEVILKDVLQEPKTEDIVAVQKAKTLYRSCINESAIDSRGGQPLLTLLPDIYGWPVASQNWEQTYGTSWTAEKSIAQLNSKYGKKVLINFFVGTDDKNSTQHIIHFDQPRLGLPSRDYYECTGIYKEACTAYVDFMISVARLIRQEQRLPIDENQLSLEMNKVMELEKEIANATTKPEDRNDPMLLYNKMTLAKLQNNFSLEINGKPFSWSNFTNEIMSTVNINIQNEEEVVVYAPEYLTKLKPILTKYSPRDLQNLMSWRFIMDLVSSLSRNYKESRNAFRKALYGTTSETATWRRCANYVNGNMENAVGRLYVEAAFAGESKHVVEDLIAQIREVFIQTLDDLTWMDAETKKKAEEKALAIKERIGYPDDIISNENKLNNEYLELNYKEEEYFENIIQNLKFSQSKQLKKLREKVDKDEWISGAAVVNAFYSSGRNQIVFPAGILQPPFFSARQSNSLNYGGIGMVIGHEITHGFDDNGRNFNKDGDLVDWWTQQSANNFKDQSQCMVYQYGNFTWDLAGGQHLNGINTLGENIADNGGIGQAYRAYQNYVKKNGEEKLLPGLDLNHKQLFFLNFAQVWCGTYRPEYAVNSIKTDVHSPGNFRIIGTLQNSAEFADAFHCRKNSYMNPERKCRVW
As to the kind of experiment: Inhibition of rat kidney NEP using glutaryl-Ala-Ala-beta-naphthylamide as substrate preincubated with enzyme for 15 mins followed by substrate addition.

T1 sequence (P12821 whole entry, the tested form may be a part): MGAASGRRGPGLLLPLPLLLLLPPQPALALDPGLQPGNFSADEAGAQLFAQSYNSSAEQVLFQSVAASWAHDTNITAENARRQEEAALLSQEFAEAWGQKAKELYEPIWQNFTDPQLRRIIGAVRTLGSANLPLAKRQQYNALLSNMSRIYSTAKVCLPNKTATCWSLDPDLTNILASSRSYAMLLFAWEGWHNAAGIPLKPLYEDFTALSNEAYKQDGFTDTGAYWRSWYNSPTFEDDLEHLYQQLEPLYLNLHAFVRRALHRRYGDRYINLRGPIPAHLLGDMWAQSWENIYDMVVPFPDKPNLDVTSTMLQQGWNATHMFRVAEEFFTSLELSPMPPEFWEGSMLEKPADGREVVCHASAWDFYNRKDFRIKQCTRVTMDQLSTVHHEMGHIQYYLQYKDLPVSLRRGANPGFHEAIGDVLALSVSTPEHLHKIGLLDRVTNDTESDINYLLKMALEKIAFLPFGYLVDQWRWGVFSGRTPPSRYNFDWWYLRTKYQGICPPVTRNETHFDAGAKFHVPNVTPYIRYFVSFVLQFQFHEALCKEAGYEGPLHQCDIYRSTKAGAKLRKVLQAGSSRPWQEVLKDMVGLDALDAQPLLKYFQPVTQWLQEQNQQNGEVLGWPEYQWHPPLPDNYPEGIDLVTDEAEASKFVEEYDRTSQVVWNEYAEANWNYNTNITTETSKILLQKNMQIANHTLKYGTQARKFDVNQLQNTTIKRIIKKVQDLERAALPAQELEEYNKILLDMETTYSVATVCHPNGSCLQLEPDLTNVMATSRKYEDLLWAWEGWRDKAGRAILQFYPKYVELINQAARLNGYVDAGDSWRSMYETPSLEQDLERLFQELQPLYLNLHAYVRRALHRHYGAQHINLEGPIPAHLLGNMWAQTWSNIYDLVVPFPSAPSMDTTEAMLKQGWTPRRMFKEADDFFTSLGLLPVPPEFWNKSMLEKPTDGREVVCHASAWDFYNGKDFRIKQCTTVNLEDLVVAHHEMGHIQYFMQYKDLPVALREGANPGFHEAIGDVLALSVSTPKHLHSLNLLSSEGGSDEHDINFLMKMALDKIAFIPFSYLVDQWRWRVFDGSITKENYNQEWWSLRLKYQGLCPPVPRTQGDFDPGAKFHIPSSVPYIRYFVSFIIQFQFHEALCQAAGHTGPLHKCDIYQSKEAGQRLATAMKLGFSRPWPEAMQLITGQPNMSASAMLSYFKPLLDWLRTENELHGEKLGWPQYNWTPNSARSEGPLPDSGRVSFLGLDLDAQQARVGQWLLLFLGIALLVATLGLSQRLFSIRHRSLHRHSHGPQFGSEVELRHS

By Ki is commonly meant a measure of affinity in units of concentration, obtained from inhibition or displacement. Read a high Ki as lower affinity. `CC(=O)N[C@@H](CC(=O)O)C(=O)NC[C@H](CC1(C(=O)N[C@@H](Cc2ccc(O)cc2)C(=O)O)CCCC1)C(=O)O`: the inhibitory constant (Ki) is 10600 nM in assay [1] and 7400 nM in assay [2].
Usually IC50 stands for the concentration needed to halve the response being measured. The low end stands for higher potency, the high end for lower potency. As to `C[C@H](C[C@@H](Cc1ccc(-c2ccccc2)cc1)NC(=O)CCC(=O)O)C(=O)O` [LBQ-657], in assay [3], the IC50 was greater than 100000 nM.
Take `CS(=O)(=O)N[C@@H](CCCCN)C(=O)NC[C@H](CC1(C(=O)N[C@@H](Cc2ccc(O)cc2)C(=O)O)CCCC1)C(=O)O`: the inhibition constant (Ki) in assay [1] was 172 nM; in assay [2], 13.8 nM. Also, the 50% inhibitory concentration (IC50) on Neprilysin [4] is 8 nM.
Consider `CC(C)C[C@H](NP(=O)(O)O[C@@H]1O[C@@H](C)[C@H](O)[C@@H](O)[C@H]1O)C(=O)N[C@@H](Cc1c[nH]c2ccccc12)C(=O)O` [PHOSPHORAMIDON], for which the figures for the IC50 (in assay [5]; on Neprilysin [6]) were 78000 nM and 34 nM, respectively.
